Assay results: patent US20180318199A1, “Pharmaceutical Composition Having Anti-Aging Properties against High-Glucose” (TAIWAN LEADER BIOTECH CORP., priority 2017, published 2018)
“Also recorded” adds a separate entry of the source.

What was measured:
Nrf2 = assay: ARE luciferase reporter assay (Nrf2 transcriptional activity) in HNDFs; format: cell-based, human; details: 6 h; for relative ARE luciferase activity, co-treated with HG: ANM 10 μM or NAC 100 μM + HG 30 mM, HG alone 2.5-fold; for relative ARE luciferase activity, compound alone: ANM 10 μM or NAC 100 μM, control 1-fold, HG 2.5-fold
Method: Therefore, to determine whether ANM augments Nrf2 transcriptional activity, ARE-harboring luciferase reporter assay is used. In FIG. 5E, to determine the Nrf2 transcriptional activity, HNDFs are transiently transfected with ARE promoter construct using lipofectamine and incubated with ANM (10 μM) or NAC (100 μM) in the presence or absence of HG (30 mM) for 6 h. Cell lysates are mixed with luciferase reagents and quantified using an illuminometer. Relative ARE promoter activity is calculated by dividing the relative luciferace unit (RLU) of treated cells by RLU of untreated cells (NG).
Activation of P13K/AKT and mitogen-activated protein kinases (MAPKs), including ERK1/2, JNK/SAPK and p38 MAPK, facilitates Nrf2 transcriptional activation in a variety of human cell lines. […] To elucidate the upstream signaling events involved in ANM-induced Nrf2 transcriptional activity, cells are pre-incubated with pharmacological inhibitors of P13K/AKT (LY294002), ERK1/2 (PD98059), SAPK/JNK (SP600125) and p38MAPK (SB203580) for 2 h and treated with ANM for 6 h in the presence of HG. In FIG. 5G, HNDFs are pre-incubated with AKT, ERK1/2, JNK/SAPK and p38 MAPK inhibitors, including LY294002 (LY, 30 μM), PD98059 (PD, 30 μM), SP600125 (SP, 30 μM) and SB203580 (SB, 30 μM), respectively, for 2 h and then incubated with ANM (10 μM) in the presence of HG (30 mM) for 6 h. Cytoplasmic and nuclear fractions are prepared and subjected to western blot analysis. GAPDH and histone H3 are served as internal controls for the cytoplasmic and nuclear fraction, respectively.
ARE promoter activity is measured using a dual-luciferase reporter assay system (Promega, Madison, Wis.). […] Cells are then transfected with ARE plasmid (Qiagen, Hilden, Germany) using Lipofectamine 2000 (Invitrogen) and incubated for 36 h. […] The cell lysate is prepared and incubated with luciferase agents and the relative luminescence intensity is quantified using a spectrophotometer (Hidex Oy, Turku, Finland).

[1] = Cell-free DPPH free-radical scavenging assay; format: biochemical; details: cell-free system
Method: Therefore, next to determine whether ANM acts directly as a free-radical scavenger, a cell-free DPPH free-radical scavenging assay is performed. In FIG. 5A, to determine the free-radical scavenging effect of ANM, cell-free DPPH assay is performed.

p53 and FoxO1 = assay: Western blot of p53 and FoxO1 acetylation/phosphorylation in HNDFs; format: cell-based, human; details: for HG-induced p53 phosphorylation at Ser15: ANM 10 μM or NAC 100 μM + HG 30 mM; for total p53 and FoxO1 levels: HNDFs, with or without HG; for protection against HG-induced decrease in FoxO1 phosphorylation: co-treatment with HG 30 mM
Method: It is well known that p16^INK4A and p21^CIP1 are regulated by transcription factors p53 and FoxO1 followed by acetylation. […] In addition, p53 phosphorylation at Ser15 by their upstream kinases promotes transcriptional activation in response to DNA damage.
To further examine the phenomenon that HG-induced p53 activation is relayed by the p38 MAPK or JNK/SAPK cascade, cells are incubated with corresponding pharmacological inhibitors, SB203580, SP600125, PD98059 and LY294002 for p38MAPK, JNK/SAPK, ERK1/2 and P13K/AKT, respectively in the presence of HG.
The protein expression levels of SIRT-1, SIRT-6, p21^CIP1, SMP30, p53, FoxO and acetylation of p53 and FoxO1 are determined by western blot analysis.
(§1) Cells are lysed by either RIPA lysis buffer or nuclear and cytoplasmic extraction reagents (Thermo Fisher Scientific). Protein concentrations are determined by Bio-Rad protein assay reagent (Bio-Rad Laboratories, Hercules, Calif.). Equal amounts of protein samples (60 μg) are separated by 7-12% SDS-PAGE and the separated proteins are transferred onto polyvinylidene […] (PVDC) membrane overnight. The transferred protein membranes are blocked with 5% non-fat dried milk for 30 min, followed by incubation with specific primary antibodies overnight, and either horseradish peroxidase-conjugated goat anti-rabbit or anti-mouse antibodies for 2 h. The blots are detected using VL Chemi-Smart 3000 (Viogene Biotek, Sunnyvale, Calif.) with the enhanced chemiluminescence (ECL) western blotting reagent (Millipore, Billerica, Mass.).

HO-1 and NQO-1 [2] = assay: Western blot of HO-1 and NQO-1 in HNDFs; format: cell-based, human; details: ANM 10 μM or NAC 100 μM, 24 h; for HO-1 protein expression: NG and HG groups
Method: In FIG. 5D, to determine the protein expression levels of HO-1, NQO-1 and Nrf2, HNDFs are incubated with ANM (10 μM) or NAC (100 μM) for 24 h. Total cell lysates are prepared and subjected to western blot analysis to monitor the expression levels of HO-1, NQO-1 and Nrf2.
as §1

HO-1 and NQO-1 [3] = assay: Western blot of HO-1 and NQO-1 in HUVECs; format: cell-based, human; details: for NQO-1 expression in HUVECs: western blot, HG
Method: The intracellular ROS level is quantified by utilizing DCFH-DA assay. […] However, treatment of HUVECs with ANM resulted reduced ROS levels (6.1-fold), compared with HUVECs in HG that are not treated with ANM. In addition, in FIG. 9G, western blot analysis is performed to determine the protein expression levels of HO-1 and NQO-1.
as §1

[4] = test system: p38 MAPK, JNK/SAPK, AKT and ERK1/2; assay: Western blot of MAPK and AKT activation in HNDFs; format: cell-based, human; details: ANM 10 μM or NAC 100 μM + HG 30 mM
Method: Next, the possible upstream regulators of p53 activation are examined. Previous studies have shown that p38 MAPK mediated p53 activation in response to intracellular ROS generation. In FIG. 4F, this effect is further extended to its upstream regulator p38 MAPK.
as §1

| SMILES | relative ARE luciferase activity, co-treated with HG (Nrf2) [fold] | relative ARE luciferase activity, compound alone (Nrf2) [fold] | free-radical scavenging effect (DPPH) [1] | HG-induced p53 and FoxO1 acetylation (p53 and FoxO1; ANM 10 μM + HG 30 mM, 72 h) | HG-induced p21^CIP1 expression and acetylation in p53 and FoxO1, control siRNA cells (p53 and FoxO1; ANM 10 μM + HG, 72 h) | p21^CIP1 expression, p53/FoxO1 deacetylation, SMP30 upregulation in SIRT-1 silenced cells (p53 and FoxO1; ANM 10 μM + HG, 72 h, siSIRT-1) | HG-induced p53 phosphorylation at Ser15 (p53 and FoxO1) | total p53 and FoxO1 levels (p53 and FoxO1) | protection against HG-induced decrease in FoxO1 phosphorylation (p53 and FoxO1) | NQO-1 protein expression (HO-1 and NQO-1 [2]) | HO-1 protein expression (HO-1 and NQO-1 [2]) | HO-1 expression in HUVECs in HG (HO-1 and NQO-1 [3]; ANM 10 μM or RES 5 μM + HG) | NQO-1 expression in HUVECs (HO-1 and NQO-1 [3]) | HG-induced JNK/SAPK activation [4] | HG-induced activation of p38 MAPK [4] | HG-mediated decrease in AKT and ERK1/2 activity (phosphorylation) [4] |
| --- | --- | --- | --- | --- | --- | --- | --- | --- | --- | --- | --- | --- | --- | --- | --- | --- |
| C=C(CCC(C)C1CCC2C3=C(C(=O)C(O)C21C)C1(C)CCC(O)C(C)C1CC3)C(C)C(=O)O (stereo not shown) [ANM, antcin M] | 8.5 | 5.8 | fails to scavenge free radicals | barely observed | significantly attenuated | fails to inhibit | significantly blocked | neither ANM nor NAC affected | fails to protect | unaffected | significantly increase | significantly increase | unaffected | significantly prevents | significantly prevents | significantly rescues; also recorded: significantly blocked |
| CC(=O)N[C@@H](CS)C(=O)O [NAC, N-acetylcysteine, reference compound] | 8.2 | 6.3 | potent free-radical scavenging effect | – | – | – | significantly blocked | neither ANM nor NAC affected | fails to protect | unaffected | significantly increase | – | unaffected | significantly prevents | significantly prevents | significantly rescues; also recorded: significantly blocked |
